Three molecules from patent publication US20120295321A1, “Pentose Transporters and Uses Thereof” (Universiteit Utrecht Holding B.V., priority 2009, published 2012) can be followed below.

Read-outs that look alike come from different tables or passages of the source.

Data set [1] concerns Aspergillus niger pentose transporter protein An03g01620 (1620), FIG. 3A. In words: zero trans-influx sugar transport assay (14C-labelled pentose uptake, transporter expressed in S. cerevisiae). In kind it is biochemical. From the text:
(§1) Cells were kept on ice until required.

Data set [2] concerns S. cerevisiae strain expressing the 0560 (An06g00560) transporter. In words: toxic effect of pentose on yeast growth, strain expressing 0560 transporter. Further: key: ++++: very good growth; +++: good growth; ++: poor growth; +: very poor growth; +/−: growth barely visible; −: no growth. As to conditions: 50 mM maltose, YNB + 2% agar + 0.5 mM CuSO4. Format: cell-based, Saccharomyces cerevisiae. The method, then: (§2) Yeast strain EB.VW4000 was grown on YP [1% (w/v) Bacto yeast extract/2% (w/v) Bacto peptone]with 2% (w/v) maltose at 30° C. (ref strain). Other S. cerevisiae strains used were derived from strain EB.VW4000, and were transformed with plasmids based on pYEX-BX (Clontech). Plasmid transformations of yeast cells were carried out according to the quick and easy TRAFO protocol [TRAFO reference]. Yeast strains were grown at 30° C. in a rotary shaker at 250 rev./min, in YNB[0.67% (w/v) Difco yeast nitrogen base] supplemented with 0.1% (w/v) casamino acids and 0.2 mg/l tryptophan, 20 mg/l leucine, 20 mg/l histidine, 122 mg/l uridine. The carbon sources used were as stated in the text. Unless stated otherwise, 0.5 mM CuSO4 was used to induce expression from the CUP1 promoter.
(§3) Yeast strains provided with an exemplary novel pentose transporter were studied with respect to the effect of growth in the presence of pentose sugars.

Data set [3] relates to S. cerevisiae strain expressing the 1100 (An11g01100) transporter. In words: toxic effect of pentose on yeast growth, strain expressing 1100 transporter. Further: key: ++++: very good growth; +++: good growth; ++: poor growth; +: very poor growth; +/−: growth barely visible; −: no growth. As to conditions: 50 mM maltose, YNB + 2% agar + 0.5 mM CuSO4. Format: cell-based, Saccharomyces cerevisiae. As to the method:
as §2, §3

The test system of data set [4] is Aspergillus niger pentose transporter protein An06g00560 (0560), FIG. 1A. The experiment in a line: zero trans-influx sugar transport assay (14C-labelled pentose uptake, transporter expressed in S. cerevisiae). Conditions: read-out: Km for L-arabinose, 5 s, 30° C., pH 6.5. In kind it is biochemical.
Description: as §1

In data set [5] the test system is Aspergillus niger pentose transporter protein An08g01720 (1720), FIG. 4A. The description is as above. In kind it is biochemical.
Description: as §1

Substrate in data set [6]: OC1OC[C@@H](O)[C@H](O)[C@H]1O
In words: cells, lysate or membranes. As to conditions: other: zero trans-influx, 5 s, 30° C., pH 6.5.

Substrate in data set [7]: OC1OC[C@H](O)[C@H](O)[C@H]1O
The experiment in a line: cells, lysate or membranes. Conditions: other: zero trans-influx, 5 s, 30° C., pH 6.5.

Consider `OC1OC[C@@H](O)[C@H](O)[C@H]1O` (stereo partly drawn) [D-xylose], for which, in data set [1] (read-out: Km for D-xylose, 5 s, 30° C., pH 6.5), the Km came to 23 mM. In addition, the growth entry in data set [2] (25 mM pentose) is given as “+++”; in data set [2] (50 mM pentose) it was “++”; in data set [2] (100 mM pentose) it was “++”; in data set [2] (500 mM pentose) it was “++”; in data set [3] (25 mM pentose), “++”; in data set [3] (50 mM pentose), “+”. Besides, the growth entry in data set [3] (100 mM pentose) and in data set [3] (500 mM pentose) was “+” in each case.

Turning to `OC1OC[C@H](O)[C@H](O)[C@H]1O` (stereo partly drawn) [L-arabinose], the Km in data set [1] (read-out: Km for L-arabinose, 5 s, 30° C., pH 6.5) worked out at 7.5 mM; in data set [4] it was 75 mM; in data set [5] (read-out: Km for L-arabinose, zero trans-influx, 5 s, 30° C., pH 6.5), 4.9 mM. Further, the “higher affinity for L-arabinose than An06g00560” value in data set [5] (Km 4.9 mM compared to 75 mM) was “approximately 15 fold”. Also, the growth result is reported as “+” in data set [2] (25 mM pentose); “+/−” in data set [2] (50 mM pentose); “+/−” in data set [2] (100 mM pentose); “−” in data set [2] (500 mM pentose); “+++” in data set [3] (25 mM pentose); “++” in data set [3] (50 mM pentose). Also, the growth result in data set [3] (100 mM pentose) is “+”; in data set [3] (500 mM pentose), “+/−”.

B1: Aspergillus niger pentose transporter protein An03g02190 (2190), FIG. 8A (Aspergillus niger CBS 513.88) (protein)
chain: MPRKRPQDELNGDVLQQEAQATGPNDQKSEEGIVDTPIPLLTWRSFLMGIFVSMGGFLFGYDTGQISGFLEMPNFLQRYGQQQADGTYYFSNARSGLIVALLSIGTLIGALIAAPIADRVGRKWSISGWSAMVCVGITIQISSPFGKWYQVAMGRWVAGLGVGALSLLVPMYQAETGPRHIRGSLVSTYQLFITLGIFVANCINFGTEARNDTGSWRIPMGITYIWAMILGFGIALFPESARYDYRHGREAKAARTLSRMYGIPENHRMLKLEIGEIRQKFVEEQERGEITWSHLLHAPRMKYRVAVGVALQALQQLTGANYFFYYGTTIFRGAGISNSYVTQMILGGVNFGTTFLGLYLIENYGRRRSLITGALWMFVCFMVFASVGHFSLDHENPERTHTAGVVMVVFACLFILGFASTWGPMVWTIIAELYPSEFRARAMSLATASNWLWNFLLAFFTPFITSAIDFRLGYVFAGCLFLAAGLVYVAVIEGRGRTLEEIDTMYVMKVPPWKSSKYVFPDIDPYDRRGSILSKAGASHIPQVSGGNETLSPHTTEV
For the molecule B1, the results for the Km in data set [6] and in data set [7] were 9 mM mM and 2.6 mM mM, respectively.
